{
  "source": "patent US7078165B2",
  "about": "“Method for modulating Nod1 activity, use of a MTP related molecule for modulating Nod1 activity, and therapeutic applications thereof” (Institut Pasteur, priority 2003, dated 2006)",
  "key": {"Nod1 [1]": {"biological_target": "T1, Nod1 (Homo sapiens, UniProt Q9Y239)", "T1 sequence (Q9Y239 1-953)": "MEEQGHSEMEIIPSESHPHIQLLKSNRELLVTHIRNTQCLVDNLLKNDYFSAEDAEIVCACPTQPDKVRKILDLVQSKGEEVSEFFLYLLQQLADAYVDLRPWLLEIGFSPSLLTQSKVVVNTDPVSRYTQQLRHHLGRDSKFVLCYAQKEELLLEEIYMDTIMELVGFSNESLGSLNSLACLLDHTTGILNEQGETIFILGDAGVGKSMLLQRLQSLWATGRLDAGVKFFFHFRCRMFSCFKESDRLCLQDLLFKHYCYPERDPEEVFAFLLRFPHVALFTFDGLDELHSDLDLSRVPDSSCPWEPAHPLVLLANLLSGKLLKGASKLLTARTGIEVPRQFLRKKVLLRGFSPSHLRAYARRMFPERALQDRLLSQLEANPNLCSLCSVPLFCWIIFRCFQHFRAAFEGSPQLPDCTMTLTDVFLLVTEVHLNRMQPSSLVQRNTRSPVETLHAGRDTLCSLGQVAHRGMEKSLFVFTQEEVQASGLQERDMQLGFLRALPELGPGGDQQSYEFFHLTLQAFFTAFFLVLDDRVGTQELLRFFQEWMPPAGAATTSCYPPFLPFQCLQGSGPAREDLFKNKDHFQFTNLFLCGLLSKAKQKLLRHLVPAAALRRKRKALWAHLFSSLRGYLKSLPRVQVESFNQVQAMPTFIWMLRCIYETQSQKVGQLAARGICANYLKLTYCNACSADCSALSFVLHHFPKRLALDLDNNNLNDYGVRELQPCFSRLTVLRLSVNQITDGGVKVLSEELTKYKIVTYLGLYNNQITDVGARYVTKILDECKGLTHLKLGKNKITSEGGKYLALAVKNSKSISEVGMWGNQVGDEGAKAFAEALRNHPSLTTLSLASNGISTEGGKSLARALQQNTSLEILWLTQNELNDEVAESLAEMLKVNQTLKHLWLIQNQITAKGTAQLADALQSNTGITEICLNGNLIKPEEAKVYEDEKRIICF", "assay": "Nod1-dependent NF-κB luciferase activation in Nod1-overexpressing HEK293 cells", "type": "cell-based", "parameters": "expressed in transfected cells; host or cells: HEK293", "settings": "for stimulation of the Nod1 pathway (NF-κB activation): LPS, lipid A, lipoproteins preparations at 10 μg/ml (FIG. 1a, 1b); for detection by Nod1: FIG. 8B-8D, additional experiments; for Nod1-dependent activation of NF-κB by muropeptides: 10 ng (FIG. 2d); for stimulation of the Nod1 pathway by HPLC fractions of N. meningitidis PGN muropeptides: 1% of the volume of each HPLC fraction (FIG. 2b)", "protocol": "(§1) Studies examining the activation of NF-κB by LPS, lipid A, lipoproteins or the purified PGNs in cells over-expressing Nod1 were carried out as described by Inohara et al. (9). Briefly, HEK293 cells were transfected overnight with 10 ng of Nod 1. At the same time, the LPS, lipoproteins or peptidoglycan preparations were added and the NF-κB-dependent luciferase activation was then measured following 24 h of co-incubation.\n(§2) NF-κB-dependent luciferase assays were performed in duplicate and data represent at least 3 independent experiments."}, "[2]": {"test_system": "NF-κB p65 in intestinal epithelial cells from Nod1-deficient mice", "assay": "NF-κB p65 nuclear translocation in intestinal epithelial cells from Nod1-deficient mice", "type": "cell-based", "settings": "microinjection of supernatants; TNFα 10 ng/ml"}, "macrophages": {"test_system": "macrophages", "assay": "Activation of macrophages", "type": "cell-based"}, "Nod2 [3]": {"biological_target": "T2, Nod2 (Homo sapiens, UniProt Q9HC29)", "T2 construct": "expressed in transfected cells", "T2 sequence (Q9HC29 whole entry)": "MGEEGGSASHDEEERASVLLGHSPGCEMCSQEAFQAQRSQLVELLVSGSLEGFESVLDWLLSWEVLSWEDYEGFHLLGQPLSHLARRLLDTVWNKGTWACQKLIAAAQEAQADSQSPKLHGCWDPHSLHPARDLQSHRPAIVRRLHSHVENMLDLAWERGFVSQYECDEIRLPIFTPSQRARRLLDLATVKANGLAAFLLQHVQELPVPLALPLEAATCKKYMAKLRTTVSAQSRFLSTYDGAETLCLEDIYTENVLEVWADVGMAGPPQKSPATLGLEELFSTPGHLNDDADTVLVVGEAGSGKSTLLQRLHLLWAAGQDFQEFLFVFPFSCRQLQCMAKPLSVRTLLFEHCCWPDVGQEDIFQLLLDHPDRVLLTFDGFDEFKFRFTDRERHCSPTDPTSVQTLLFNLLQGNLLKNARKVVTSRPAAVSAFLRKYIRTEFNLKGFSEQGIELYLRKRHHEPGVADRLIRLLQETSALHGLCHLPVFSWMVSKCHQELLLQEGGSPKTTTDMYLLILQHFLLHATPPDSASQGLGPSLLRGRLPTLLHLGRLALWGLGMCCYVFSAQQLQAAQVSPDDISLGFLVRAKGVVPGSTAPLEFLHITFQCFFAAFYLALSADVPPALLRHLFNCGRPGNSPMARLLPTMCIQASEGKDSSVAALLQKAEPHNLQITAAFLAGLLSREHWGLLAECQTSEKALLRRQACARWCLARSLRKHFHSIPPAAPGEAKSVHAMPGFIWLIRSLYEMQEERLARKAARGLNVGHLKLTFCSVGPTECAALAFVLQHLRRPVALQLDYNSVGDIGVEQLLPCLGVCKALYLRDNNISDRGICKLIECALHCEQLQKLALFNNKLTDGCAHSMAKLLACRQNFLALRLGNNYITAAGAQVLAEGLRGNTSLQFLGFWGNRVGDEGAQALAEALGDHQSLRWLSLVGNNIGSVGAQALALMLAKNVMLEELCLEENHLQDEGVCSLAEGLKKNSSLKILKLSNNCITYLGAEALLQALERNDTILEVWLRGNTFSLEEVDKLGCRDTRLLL", "settings": "cited from earlier work"}, "Nod2 [4]": {"biological_target": "T2, Nod2", "assay": "Nod2-dependent activation of NF-κB", "type": "cell-based", "settings": "10 ng (FIG. 2d)", "protocol": "as §1, §2\n(§3) In FIG. 2a, PGN muropeptides from N. meningitides were separated by reverse-phase HPLC and subsequently analysed by mass spectroscopy (see supporting on-line text). […] In FIG. 2d, equivalent amounts (10 ng) of GM-dipeptide (GM-di; synthetic source), GM-tripeptide (GMtri), or GM-tetrapeptide (GM-tetra) were tested for stimulation of Nod 1-, Nod2- or TLR2-dependent activation of NF-κB. […] Buff, buffer diluent of the muropeptides."}, "Nod1 [5]": {"biological_target": "T1, Nod1", "assay": "Nod1-dependent IL-8 production in HeLa epithelial cells (ELISA)", "type": "cell-based", "parameters": "expressed in transfected cells", "settings": "HeLa cells transfected with 10 ng Nod1; 18 h; IL-1 at 10 ng/ml (FIG. 2f)", "protocol": "To measure Nod1-dependent IL-8 produced in epithelial cells by muropeptides, 5×10^5HeLa cells were seeded into each well of a twelve well plate and transfected the following day with 10 ng Nod1 plus the individual muropeptides (as described above) or treated with IL-1 as a positive control. Eighteen hours later, supernatants were collected and assayed for IL-8 as previously described (10) using an ELISA kit (R and D Systems).\nas §3"}},
  "data": [
    {"compound": "Lpp: the most abundant lipoprotein in E. coli (lipidated)", "values": [
      {"measurement": "stimulation of the Nod1 pathway (NF-κB activation)", "setting": "Nod1 [1]", "result": "not possible to stimulate the Nod1 pathway"}
    ]},
    {"compound": "CC(=O)NC1C(O)OC(CO)C(O)C1OC(C)C(=O)NC(C)C(=O)NC(CCC(=O)NC(CCCC(N)C(=O)O)C(=O)O)C(=O)O", "note": "(stereo not drawn) [MurTriDAP]", "values": [
      {"measurement": "detection by Nod1", "setting": "Nod1 [1]", "result": "detects"}
    ]},
    {"compound": "TNFα", "values": [
      {"measurement": "NF-κB nuclear translocation in Nod1-deficient cells", "setting": "[2]", "result": "can efficiently stimulate NF-κB nuclear translocation"}
    ]},
    {"compound": "CC(=O)N[C@H]1[C@@H](OP(=O)(O)OP(=O)(O)OC[C@H]2O[C@@H](n3ccc(=O)[nH]c3=O)[C@H](O)[C@@H]2O)O[C@H](CO)[C@@H](O)[C@@H]1O[C@H](C)C(=O)N[C@@H](C)C(=O)N[C@H](CCC(=O)N[C@@H](CCC[C@@H](N)C(=O)O)C(=O)O)C(=O)O", "note": "[UDP-MurTriDAP]", "values": [
      {"measurement": "detection by Nod1", "setting": "Nod1 [1]", "result": "detects"}
    ]},
    {"compound": "lipid A [reference compound]", "values": [
      {"measurement": "stimulation of the Nod1 pathway (NF-κB activation)", "setting": "Nod1 [1]", "result": "could not stimulate the Nod1 pathway"},
      {"measurement": "activation of macrophages", "setting": "macrophages", "result": "could efficiently activate macrophages"}
    ]},
    {"compound": "C[C@H](N)C(=O)N[C@H](CCC(=O)NC(CCCC(N)C(=O)O)C(=O)O)C(=O)O", "note": "(stereo partly drawn) [tripeptide L-Ala-D-Glu-mesoDAP, L-Ala-D-Glu-mesoDAP]", "values": [
      {"measurement": "detection by Nod1", "setting": "Nod1 [1]", "result": "able to sense"},
      {"measurement": "detection by Nod1", "setting": "Nod1 [1]; listed as TriDAP", "result": "detects"}
    ]},
    {"compound": "CC(=O)N[C@H]1C(O)O[C@H](CO)[C@@H](O)[C@@H]1O[C@H](C)C(=O)N[C@@H](C)C(=O)N[C@H](CCC(=O)O)C(N)=O", "note": "(mixture of isomers) [M-dipeptide, muramyl dipeptide]", "values": [
      {"measurement": "recognition by Nod2 (previous findings)", "setting": "Nod2 [3]", "result": "recognizes"}
    ]},
    {"compound": "GlcNAc-MurNAc-L-Ala-D-Glu-mesoDAP-DAla [GM-tetrapeptide]", "values": [
      {"measurement": "Nod1-dependent activation of NF-κB by muropeptides", "setting": "Nod1 [1]", "result": "not sensed"}
    ]},
    {"compound": "GlcNAc-anhydro-MurNAc-L-Ala-D-GlumesoDAP [anhydrous GM-tripeptide]", "values": [
      {"measurement": "stimulation of the Nod1 pathway by HPLC fractions of N. meningitidis PGN muropeptides", "setting": "Nod1 [1]", "result": "activates Nod1"}
    ]},
    {"compound": "GlcNAc-MurNAc-L-Ala-D-Glu-mesoDAP(GlcNAc-MurNAc-L-Ala-D-Glu-mesoDAP-D-Ala)-D-Ala [dimeric GM-tetrapeptide, reference compound]", "values": [
      {"measurement": "stimulation of the Nod1 pathway by HPLC fractions of N. meningitidis PGN muropeptides", "setting": "Nod1 [1]", "result": "does not activate Nod1"}
    ]},
    {"compound": "Pam3Cys-Ser-Lys4-OH [synthetic lipopeptide, reference compound]", "values": [
      {"measurement": "stimulation of the Nod1 pathway (NF-κB activation)", "setting": "Nod1 [1]", "result": "not possible to stimulate the Nod1 pathway"}
    ]},
    {"compound": "CC(=O)N[C@H]1[C@H](O[C@H]2[C@H](O[C@H](C)C(=O)N[C@@H](C)C(=O)N[C@H](CCC(=O)O)C(N)=O)[C@@H](NC(C)=O)C(O)O[C@@H]2CO)O[C@H](CO)[C@@H](O)[C@@H]1O", "note": "(stereo partly drawn) [GM-dipeptide]", "values": [
      {"measurement": "Nod2-dependent activation of NF-κB by muropeptides", "setting": "Nod2 [4]", "result": "detects"}
    ]},
    {"compound": "GlcNAc-MurNAc-L-Ala-D-Glu-mesoDAP [GM-tripeptide]", "values": [
      {"measurement": "production of IL-8", "setting": "Nod1 [5]", "result": "production of the pro-inflammatory chemokine, IL-8"},
      {"measurement": "Nod1-dependent activation of NF-κB by muropeptides", "setting": "Nod1 [1]", "result": "specifically detects"},
      {"measurement": "stimulation of the Nod1 pathway by HPLC fractions of N. meningitidis PGN muropeptides", "setting": "Nod1 [1]", "result": "activates Nod1"},
      {"measurement": "detection by Nod1", "setting": "Nod1 [1]", "result": "detects"}
    ]}
  ]
}
